The results in this text go back to patent publication US5238922A, “Inhibitors of farnesyl protein transferase” (Merck & Co., Inc., priority 1991, dated 1993).

The subject of experiment [1] is Ras farnesylation in the v-ras cell line (viral Ha-ras p21). Put plainly: In vivo ras farnesylation assay (v-ras cell line). Format: cell-based. On the procedure:
The cell line used in this assay was the v-ras line, which expressed viral Ha-ras p21. The assay was performed essentially as described in DeClue, J. E. et. al., Cancer Research 51, 712-717, (1991). Cells in 10 cm dishes at 50-75% confluency were treated with the test compound (final concentration of solvent, methanol or dimethyl sulfoxide, was 0.1%). After 4 hours at 37° C., the cells were labelled in 3 ml methionine-free DMEM supplemented with 10% regular DMEM, 2% fetal bovine serum and 400 μCi[^35 S]methionine (1000 Ci/mmol). After an additional 20 hours, the cells were lysed in 1 ml lysis buffer (1% NP40/20 mM HEPES, pH 7.5/5 mM MgCl2 /1 mM DTT/10 μg/ml aprotinen/2 μg/ml leupeptin/2 μg/ml antipain/0.5 mM PMSF) and the lysates cleared by centrifugation at 100,000×g for 45 min. Aliqouts of lysates containing equal numbers of acid-precipitable counts were bought to 1 ml with IP buffer (lysis buffer lacking DTT) and immunoprecipitated with the ras-specific monoclonal antibody Y13-259 (Furth, M. E. et. al., J. Virol. 43, 294-304, (1982)). Following a 2 hour antibody incubation at 4° C., 200 μl of a 25% suspension of protein A-Sepharose coated with rabbit anti rat IgG was added for 45 min. […]

For experiment [2], the target named is T1, Farnesyl-protein transferase (FTase) from bovine brain (Bos taurus, UniProt P29702+P49355).
T1 construct: incubated with this partially purified enzyme preparation; from tissue; host or cells: bovine brain
In words: In vitro inhibition of Ras Farnesyl Transferase. As to conditions: partially purified bovine brain FTase; Ras-CVLS 3.5 μM, 0.25 μM [3H]FPP; read-out: IC50 (concentration of compound which gives 50% inhibition of FTase). It counts as biochemical. On the procedure:
Farnesyl-protein transferase (FTase) from bovine brain was chromatographed on DEAE-Sephacel (Pharmacia, 0-0.8M NaCl gradient elution), N-octyl agarose (Sigma, 0-0.6M NaCl gradient elution),, and a mono Q HPLC column (Pharmacia, 0-0.3M NaCl gradient). Ras-CVLS at 3.5 μM, 0.25 μM [^3 H]FPP, and the indicated compounds were incubated with this partially purified enzyme preparation. The FTase data presented below is a measurement of the ability of the test compound to inhibit Ras farnesylation in vitro.

With `CCOC(=O)[C@H](CCSC)NC(=O)[C@H](Cc1ccccc1)NC(=O)[C@@H](NC[C@@H](N)CS)[C@@H](C)CC` [N-(2(R)-amino-3-mercaptopropyl)isoleucyl-phenylalanyl-methionine ethyl ester], in experiment [1] (at 10 μm test concentration), the “Inhibition of Ras Farnesylation in the v-ras cell line” value is 10%. Also, in experiment [2], the IC50 was determined as 2000 nM. Turning to `CSCC[C@H](NC(=O)[C@H](Cc1ccccc1)NC[C@@H](NC(=O)[C@@H](N)CS)C(C)C)C(=O)O` [N-(3-methyl-2(S)-(cysteinylamino)but-1-yl)phenylalanyl-methionine], the IC50 in experiment [2] turned out to be 7 nM. For the compound `CC[C@H](C)[C@@H](CN[C@@H](Cc1ccccc1)C(=O)N[C@@H](CCSC)C(=O)O)NC[C@@H](N)CS` [N-[2(S)-(2(R)-amino-3-mercaptopropylamino)-3(S)-methylpentyl]phenylalanyl-methionine], the “Inhibition of Ras Farnesylation in the v-ras cell line” value in experiment [1] (at 100 μm test concentration) is listed as 30%. The IC50 in experiment [2] amounted to 4.7 nM.
